Source: patent publication US20180028681A1, “COMBINATION THERAPY USING A CD19-ADC AND VINCRISTINE” (SEATTLE GENETICS, INC., priority 2015, published 2018)

Tested on: NALM6 cells
Assay: In vitro cytotoxicity (CellTiter-Glo) on NALM6 cells
Type: cell-based
Conditions: 96 hours, minimally/low effective dose used for the combination
Experimental: Isobolograms: Cells were plated at 5000 per well in 384 well plates using Fluid-X liquid handler (Fluid-X, Boston, Mass.). SGN-CD19A and Vincristine were plated separately and serial diluted in 2×96 well plates per drug. SGN-CD19A and Vincristine were added to 384 well plates, either alone or in combination at range above and below the IC50 for each single agent using the Hamilton STAR automation robotics (Hamilton, Reno, Nev.). Cells were kept at 37° C. for 96 hours. Cell viability readout was performed using the CellTiter-Glo assay (Promega, Madison, Wis.). Luminescence was measured using the Envision plate reader (Perkin Elmer, Waltham, Mass.). Activity was determined by the luminescence of treated cells compared to that of untreated cells.
To verify the results of the in vivo SGN-CD19A plus vincristine or SGN-CD19A plus doxorubicin combinations, in vitro cytotoxicity experiments were performed. […] The concentration of each agent was serially diluted to include doses that would have no cytotoxicity to doses that would kill all cells. […] NALM-6 cells were also incubated with a combination of SGN-CD19A and doxorubicin, in a similar manner.

| Compound | cell kill as a single agent |
| --- | --- |
| CC[C@]1(O)C[C@H]2CN(CCc3c([nH]c4ccccc34)[C@@](C(=O)OC)(c3cc4c(cc3OC)N(C=O)[C@H]3[C@@](O)(C(=O)OC)[C@H](OC(C)=O)[C@]5(CC)C=CCN6CC[C@]43[C@@H]65)C2)C1 [Vincristine] | approximately 5% |
| COc1cccc2c1C(=O)c1c(O)c3c(c(O)c1C2=O)C[C@@](O)(C(=O)CO)C[C@@H]3O[C@H]1C[C@H](N)[C@H](O)[C@H](C)O1 [Doxorubicin] | approximately 20% |
